Results: article PMC3814616, “BRAF inhibitors suppress apoptosis through off-target inhibition of JNK signaling” (eLife, 2013)

Columns and labels:
phospho-ERK = test: Western blot, ERK phosphorylation in SRB1 and NHEK cells; assay type: cell-based, human; conditions: 0.6 μM (NHEK) or 1.2 μM (SRB1)
Description: Figure 2. […] DOI: http://dx.doi.org/10.7554/eLife.00969.010 [drawing 5]

[1] = 150 mg PO BID in humans, ref Falchook et al., 2012; cited from earlier work
HaCaT cells = test: UV-induced apoptosis, FACS Annexin V+, TMRE-low; assay type: cell-based, human; conditions: 0.05 μM
[2] = tested on: E1A and HRAS^G12V-transformed Craf−/− MEFs; test: Soft agar colony formation; assay type: cell-based, mouse; conditions: 0.05 μM
human full-length ZAK = biological target: T1, human full-length ZAK (Homo sapiens, UniProt Q9NYL2); test: In vitro kinase assay (Reaction Biology); assay type: biochemical
T1 construct: In vitro kinase assays were performed using human full-length ZAK; purchased Reaction Biology

[3] = tested on: A375 and WM35 BRAF^V600E melanoma cell lines; test: Growth of BRAF^V600E melanoma cell lines; assay type: cell-based, human; conditions: bioequivalent doses: dabrafenib 0.05 μM, PLX4720 1.0 μM
[4] = biological target: T2, MKK4 (amino acids 33-end) (Homo sapiens, UniProt P45985); test: In vitro kinase assay (Reaction Biology); assay type: biochemical; conditions: up to 1 μM
T2 construct: amino acids 33-end MKK4 (JNK1 substrate, ATP 0.1 μM); purchased Reaction Biology
T2 sequence (P45985 33-399 limits assumed): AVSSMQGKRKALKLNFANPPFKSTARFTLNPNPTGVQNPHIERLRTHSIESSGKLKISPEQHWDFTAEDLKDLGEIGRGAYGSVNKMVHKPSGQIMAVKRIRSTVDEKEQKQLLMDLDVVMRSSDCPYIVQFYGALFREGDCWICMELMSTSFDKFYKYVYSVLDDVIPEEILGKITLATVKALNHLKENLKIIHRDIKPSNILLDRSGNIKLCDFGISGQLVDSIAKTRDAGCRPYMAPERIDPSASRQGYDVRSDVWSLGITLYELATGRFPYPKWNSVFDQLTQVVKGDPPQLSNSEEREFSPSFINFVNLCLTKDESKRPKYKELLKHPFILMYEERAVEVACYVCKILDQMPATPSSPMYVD

[5] = Serum concentration in humans; assay type: in vivo, human; conditions: 150 mg PO BID vs vemurafenib 960 mg PO BID
phospho-JNK = test: Western blot, UV-induced phospho-JNK in cSCC and HaCaT cell lines; assay type: cell-based, human; conditions: 0.05 μM, HaCaT and SRB1 cells
[6] = tested on: E1A and HRAS^G12V-transformed wild-type (WT) MEFs; test: Soft agar colony formation; assay type: cell-based, mouse; conditions: 0.05 μM
A375 melanoma cell line = conditions: ref Greger et al., 2012; cited from earlier work
full length MAP4K5 = biological target: T3, full length MAP4K5 (Homo sapiens, UniProt Q9Y4K4); test: In vitro kinase assay (Reaction Biology); assay type: biochemical; conditions: up to 1 μM
T3 construct: and full length MAP4K5 (MBP substrate, ATP 10 μM) (Reaction Biology); purchased Reaction Biology
T3 sequence (Q9Y4K4 whole entry): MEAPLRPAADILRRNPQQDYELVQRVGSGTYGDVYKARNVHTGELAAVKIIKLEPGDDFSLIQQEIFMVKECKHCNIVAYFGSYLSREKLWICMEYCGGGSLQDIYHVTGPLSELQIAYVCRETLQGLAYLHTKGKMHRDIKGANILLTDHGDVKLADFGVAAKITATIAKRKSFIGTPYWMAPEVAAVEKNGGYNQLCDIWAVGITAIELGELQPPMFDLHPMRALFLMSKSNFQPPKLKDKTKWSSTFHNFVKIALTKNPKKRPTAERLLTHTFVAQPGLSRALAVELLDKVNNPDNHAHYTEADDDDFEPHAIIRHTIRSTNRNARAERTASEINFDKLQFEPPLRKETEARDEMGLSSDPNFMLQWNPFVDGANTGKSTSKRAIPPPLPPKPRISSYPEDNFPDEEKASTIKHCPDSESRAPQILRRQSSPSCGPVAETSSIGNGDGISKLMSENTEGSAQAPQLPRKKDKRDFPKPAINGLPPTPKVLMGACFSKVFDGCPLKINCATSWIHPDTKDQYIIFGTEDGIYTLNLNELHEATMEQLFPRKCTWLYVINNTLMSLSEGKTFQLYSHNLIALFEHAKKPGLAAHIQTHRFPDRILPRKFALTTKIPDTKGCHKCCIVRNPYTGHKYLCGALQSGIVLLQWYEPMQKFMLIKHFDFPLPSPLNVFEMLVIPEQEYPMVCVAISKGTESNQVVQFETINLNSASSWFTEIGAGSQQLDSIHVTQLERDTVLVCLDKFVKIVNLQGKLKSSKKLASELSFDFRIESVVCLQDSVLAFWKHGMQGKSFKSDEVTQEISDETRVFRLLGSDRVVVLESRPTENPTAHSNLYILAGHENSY

cSCC in treated patients = conditions: 150 mg PO BID, ref Falchook et al., 2012, Hauschild et al., Long et al.; cited from earlier work
SRB1 cells = test: UV-induced apoptosis, FACS Annexin V+, TMRE-low; assay type: cell-based, human; conditions: 0.05 μM

| SMILES | ERK phosphorylation and activation (phospho-ERK) | peak serum concentrations [1] | UV-induced apoptosis (HaCaT cells) | colony formation [2] | IC50 (human full-length ZAK; MBP substrate, ATP 2.5 μM, read-out: biochemical IC50) | retained activity of ZAK kinase (human full-length ZAK; at 0.01 μM) | growth of A375 and WM35 cells [3] | inhibition of MKK4 [4] | peak serum concentration, fold lower than mean sustained serum levels of vemurafenib [5] | UV-induced phospho-JNK induction (phospho-JNK) | colony formation [6] | GI50 (A375 melanoma cell line) | inhibition of MAP4K5 (full length MAP4K5) | overall aggregated cSCC rate (cSCC in treated patients) | UV-induced apoptosis (SRB1 cells) |
| --- | --- | --- | --- | --- | --- | --- | --- | --- | --- | --- | --- | --- | --- | --- | --- |
| Cn1cnc2c(F)c(Nc3ccc(Br)cc3Cl)c(C(=O)NOCCO)cc21 [AZD6244] | effectively abrogated |  |  |  |  |  |  |  |  |  |  |  |  |  |  |
| CC(C)(C)c1nc(-c2cccc(NS(=O)(=O)c3c(F)cccc3F)c2F)c(-c2ccnc(N)n2)s1 [dabrafenib] |  | 1.55 µM | fails to suppress | fails to confer a significant growth advantage | 28.9 ± 2.23 nM | over 64% | suppress the growth | no significant inhibition | over 50 fold | fails to suppress | significant growth advantage | < 10 nM | no significant inhibition | 6.1% | fails to suppress |
